Reference: PubChem BioAssay AID1745844 (Carcinogenic Potency Database (CPDB), 2022)
Where “and” joins values, the source holds several entries; their conditions need not be identical. Identical values can stand only once. Calls of active or inactive are those of the source. The rule behind the calls is not given here.

Test system: rodent lifetime carcinogenesis bioassay, tumor incidence TD50
Assay: carcinogenic potency in animals, long-term in vivo studies, CPDB compilation (AID 1745844)

SMILES: Cc1cnc2ccc3c(nc(N)n3C)c2n1
- TD50 (mouse, strain CDF1, females, in feed, site: all sites, lesion: lymphoma and leukemia, combined, dosed 84 weeks, study length 84 weeks): 6820 mg/kg/day
- TD50 (mouse, strain CDF1, females, in feed, site: liver, lesion: hepatocellular adenoma, dosed 84 weeks, study length 84 weeks): 14.2 mg/kg/day
- TD50 (mouse, strain CDF1, females, in feed, site: liver, lesion: hepatocellular carcinoma, dosed 84 weeks, study length 84 weeks): 27.8 mg/kg/day
- TD50 (mouse, strain CDF1, females, in feed, site: liver, lesion: several types, types named in the paper, dosed 84 weeks, study length 84 weeks): 14.2 mg/kg/day
- TD50 (mouse, strain CDF1, females, in feed, site: lung, lesion: adenocarcinoma, dosed 84 weeks, study length 84 weeks): 257 mg/kg/day
- TD50 (mouse, strain CDF1, females, in feed, site: lung, lesion: adenoma, dosed 84 weeks, study length 84 weeks): 143 mg/kg/day
- TD50 (mouse, strain CDF1, females, in feed, site: lung, lesion: several types, types named in the paper, dosed 84 weeks, study length 84 weeks): 77.2 mg/kg/day
- TD50 (mouse, strain CDF1, males, in feed, site: all sites, lesion: lymphoma and leukemia, combined, dosed 84 weeks, study length 84 weeks): 109 mg/kg/day
- TD50 (mouse, strain CDF1, males, in feed, site: liver, lesion: hepatocellular adenoma, dosed 84 weeks, study length 84 weeks): 86.9 mg/kg/day
- TD50 (mouse, strain CDF1, males, in feed, site: liver, lesion: hepatocellular carcinoma, dosed 84 weeks, study length 84 weeks): 102 mg/kg/day
- TD50 (mouse, strain CDF1, males, in feed, site: liver, lesion: several types, types named in the paper, dosed 84 weeks, study length 84 weeks): 83.8 mg/kg/day
- TD50 (mouse, strain CDF1, males, in feed, site: lung, lesion: adenocarcinoma, dosed 84 weeks, study length 84 weeks): 236 mg/kg/day
- TD50 (mouse, strain CDF1, males, in feed, site: lung, lesion: adenoma, dosed 84 weeks, study length 84 weeks): 262 mg/kg/day
- TD50 (mouse, strain CDF1, males, in feed, site: lung, lesion: several types, types named in the paper, dosed 84 weeks, study length 84 weeks): 134 mg/kg/day
- TD50 (rat, strain F344/DuCrj, females, in feed, site: Zymbal's gland, lesion: squamous-cell carcinoma, dosed 61 weeks, study length 61 weeks): 6.31 mg/kg/day
- TD50 (rat, strain F344/DuCrj, females, in feed, site: clitoral gland, lesion: squamous-cell carcinoma, dosed 61 weeks, study length 61 weeks): 4.72 mg/kg/day
- TD50 (rat, strain F344/DuCrj, females, in feed, site: liver, lesion: neoplastic nodule, dosed 61 weeks, study length 61 weeks): 6.31 mg/kg/day
- TD50 (rat, strain F344/DuCrj, females, in feed, site: skin, lesion: squamous-cell carcinoma, dosed 61 weeks, study length 61 weeks): 87.2 mg/kg/day
- TD50 (rat, strain F344/DuCrj, males, in feed, site: Zymbal's gland, lesion: sebaceous adenoma, dosed 56 weeks, study length 56 weeks): 38.9 mg/kg/day
- TD50 (rat, strain F344/DuCrj, males, in feed, site: Zymbal's gland, lesion: several types, types named in the paper, dosed 56 weeks, study length 56 weeks): 4.91 mg/kg/day
- TD50 (rat, strain F344/DuCrj, males, in feed, site: Zymbal's gland, lesion: several types, types named in the paper, dosed 61 weeks, study length 61 weeks): 2.72 mg/kg/day
- TD50 (rat, strain F344/DuCrj, males, in feed, site: Zymbal's gland, lesion: squamous-cell carcinoma, dosed 56 weeks, study length 56 weeks): 8.6 mg/kg/day
- TD50 (rat, strain F344/DuCrj, males, in feed, site: Zymbal's gland, lesion: squamous-cell carcinoma, dosed 61 weeks, study length 61 weeks): 3.59 mg/kg/day
- TD50 (rat, strain F344/DuCrj, males, in feed, site: Zymbal's gland, lesion: squamous-cell papilloma, dosed 56 weeks, study length 56 weeks): 29.1 mg/kg/day
- TD50 (rat, strain F344/DuCrj, males, in feed, site: Zymbal's gland, lesion: squamous-cell papilloma, dosed 61 weeks, study length 61 weeks): 35.8 mg/kg/day
- TD50 (rat, strain F344/DuCrj, males, in feed, site: liver, lesion: hepatocellular adenoma, dosed 56 weeks, study length 56 weeks): 3.15 mg/kg/day
- TD50 (rat, strain F344/DuCrj, males, in feed, site: liver, lesion: hepatocellular carcinoma, dosed 56 weeks, study length 56 weeks): 2.91 mg/kg/day
- TD50 (rat, strain F344/DuCrj, males, in feed, site: liver, lesion: hepatocellular carcinoma, dosed 61 weeks, study length 61 weeks): 1.26 mg/kg/day
- TD50 (rat, strain F344/DuCrj, males, in feed, site: liver, lesion: neoplastic nodule, dosed 61 weeks, study length 61 weeks): 73.5 mg/kg/day
- TD50 (rat, strain F344/DuCrj, males, in feed, site: liver, lesion: several types, types named in the paper, dosed 56 weeks, study length 56 weeks): 1.24 mg/kg/day
- carcinogen call (rat, strain F344/DuCrj, males, in feed, site: liver, lesion: several types, types named in the paper, dosed 61 weeks, study length 61 weeks): positive
- TD50 (rat, strain F344/DuCrj, males, in feed, site: skin, lesion: basal-cell carcinoma, dosed 61 weeks, study length 61 weeks): 73.5 mg/kg/day
- TD50 (rat, strain F344/DuCrj, males, in feed, site: skin, lesion: sebaceous adenoma, dosed 56 weeks, study length 56 weeks): 58.8 mg/kg/day
- TD50 (rat, strain F344/DuCrj, males, in feed, site: skin, lesion: several types, types named in the paper, dosed 56 weeks, study length 56 weeks): 12 mg/kg/day
- TD50 (rat, strain F344/DuCrj, males, in feed, site: skin, lesion: several types, types named in the paper, dosed 61 weeks, study length 61 weeks): 8.76 mg/kg/day
- TD50 (rat, strain F344/DuCrj, males, in feed, site: skin, lesion: squamous-cell carcinoma, dosed 56 weeks, study length 56 weeks): 59.2 mg/kg/day
- TD50 (rat, strain F344/DuCrj, males, in feed, site: skin, lesion: squamous-cell carcinoma, dosed 61 weeks, study length 61 weeks): 13.1 mg/kg/day
- TD50 (rat, strain F344/DuCrj, males, in feed, site: skin, lesion: squamous-cell papilloma, dosed 56 weeks, study length 56 weeks): 59.2 mg/kg/day
- TD50 (rat, strain F344/DuCrj, males, in feed, site: skin, lesion: squamous-cell papilloma, dosed 61 weeks, study length 61 weeks): 73.5 mg/kg/day
- TD50 (rat, strain F344/DuCrj, males, in feed, site: skin, lesion: trichoepithelioma, dosed 56 weeks, study length 56 weeks): 38.9 mg/kg/day

SMILES: COC(=O)C(c1ccccc1)C1CCCCN1N=O (stereo not given)
- carcinogen call (mouse, strain (C57BL/6 x BALB/c)F1, females, in drinking water, site: any site (literature study), lesion: several types, types named in the paper, dosed 73 weeks, study length 106 weeks): negative (inactive)
- carcinogen call (mouse, strain (C57BL/6 x BALB/c)F1, females, in drinking water, site: liver, lesion: one or several types, types not named, dosed 73 weeks, study length 106 weeks): negative (inactive)
- carcinogen call (mouse, strain (C57BL/6 x BALB/c)F1, females, in drinking water, site: lung, lesion: one or several types, types not named, dosed 73 weeks, study length 106 weeks): negative (inactive)
- carcinogen call (mouse, strain (C57BL/6 x BALB/c)F1, males, in drinking water, site: any site (literature study), lesion: several types, types named in the paper, dosed 73 weeks, study length 106 weeks): negative (inactive)
- carcinogen call (mouse, strain (C57BL/6 x BALB/c)F1, males, in drinking water, site: lung, lesion: one or several types, types not named, dosed 73 weeks, study length 106 weeks): negative (inactive)

SMILES: NNc1nc(-c2ccc(N)cc2)cs1
- TD50 (mouse, strain Swiss, females, in feed, site: all sites, lesion: lymphocytic leukemia, dosed 46 weeks, study length 66 weeks): 11.3 mg/kg/day
- TD50 (mouse, strain Swiss, females, in feed, site: any site (literature study), lesion: several types, types named in the paper, dosed 46 weeks, study length 66 weeks): 11.3 mg/kg/day
- TD50 (rat, strain Sprague-Dawley, females, in feed, site: all sites, lesion: lymphoblastic lymphoma, dosed 46 weeks, study length 75 weeks): 7.09 mg/kg/day
- TD50 (rat, strain Sprague-Dawley, females, in feed, site: any site (literature study), lesion: several types, types named in the paper, dosed 46 weeks, study length 75 weeks): 0.582 mg/kg/day
- TD50 (rat, strain Sprague-Dawley, females, in feed, site: mammary gland, lesion: adenocarcinoma, dosed 46 weeks, study length 75 weeks): 1.02 mg/kg/day
- TD50 (rat, strain Sprague-Dawley, females, in feed, site: mammary gland, lesion: several types, types named in the paper, dosed 46 weeks, study length 75 weeks): 1.03 mg/kg/day

SMILES: C#CC(C)(C)NC(=O)c1cc(Cl)cc(Cl)c1
- TD50 (mouse, strain B6C3F1, males, in feed, site: liver, lesion: hepatocellular carcinoma, dosed 78 weeks, study length 78 weeks): 1480 mg/kg/day
- TD50 (mouse, strain B6C3F1, males, in feed, site: liver, lesion: hepatocellular carcinoma, dosed 104 weeks, study length 104 weeks): 140 mg/kg/day
- TD50 (mouse, strain B6C3F1, males, in feed, site: liver, lesion: several types, types named in the paper, dosed 52 weeks, study length 52 weeks): 1360 mg/kg/day
- TD50 (mouse, strain B6C3F1, males, in feed, site: liver, lesion: several types, types named in the paper, dosed 78 weeks, study length 78 weeks): 700 mg/kg/day
- TD50 (mouse, strain B6C3F1, males, in feed, site: liver, lesion: several types, types named in the paper, dosed 104 weeks, study length 104 weeks): 209 mg/kg/day

SMILES: CCNC(=O)N(C=O)CCN(C)C
- TD50 (rat, strain Fischer 344, females, by gavage, site: cervix, lesion: adenocarcinoma, dosed 37 weeks, study length 102 weeks): 5.35 mg/kg/day
- TD50 (rat, strain Fischer 344, females, by gavage, site: lung, lesion: one or several types, types not named, dosed 37 weeks, study length 102 weeks): 5.35 mg/kg/day
- TD50 (rat, strain Fischer 344, females, by gavage, site: mammary gland, lesion: adenocarcinoma, dosed 37 weeks, study length 102 weeks): 3.39 mg/kg/day
- TD50 (rat, strain Fischer 344, females, by gavage, site: mammary gland, lesion: adenoma, dosed 37 weeks, study length 102 weeks): 11.2 mg/kg/day
- TD50 (rat, strain Fischer 344, females, by gavage, site: mammary gland, lesion: fibroadenoma, dosed 37 weeks, study length 102 weeks): 0.704 mg/kg/day
- TD50 (rat, strain Fischer 344, females, by gavage, site: uterus, lesion: adenoma, dosed 37 weeks, study length 102 weeks): 11.2 mg/kg/day
- TD50 (rat, strain Fischer 344, females, by gavage, site: uterus, lesion: endometrial polyp, dosed 37 weeks, study length 102 weeks): 1.41 mg/kg/day
- TD50 (rat, strain Fischer 344, males, by gavage, site: lung, lesion: one or several types, types not named, dosed 37 weeks, study length 102 weeks): 2.37 mg/kg/day
- TD50 (rat, strain Fischer 344, males, by gavage, site: skin, lesion: keratoacanthoma, dosed 37 weeks, study length 102 weeks): 1.92 mg/kg/day

SMILES: Nc1c(Cl)cc(Cl)cc1Cl
- TD50 (mouse, strain CD-1 HaM/ICR, females, in feed, site: any site (literature study), lesion: several types, types named in the paper, dosed 68 weeks, study length 77 weeks): 914 mg/kg/day (inactive)
- TD50 (mouse, strain CD-1 HaM/ICR, females, in feed, site: liver, lesion: several types, types named in the paper, dosed 68 weeks, study length 77 weeks): 927 mg/kg/day (inactive)
- TD50 (mouse, strain CD-1 HaM/ICR, females, in feed, site: lung, lesion: several types, types named in the paper, dosed 68 weeks, study length 77 weeks): 1370 mg/kg/day (inactive)
- TD50 (mouse, strain CD-1 HaM/ICR, males, in feed, site: all sites, lesion: all vascular tumors, dosed 68 weeks, study length 77 weeks): 273 mg/kg/day and 259 mg/kg/day
- TD50 (mouse, strain CD-1 HaM/ICR, males, in feed, site: any site (literature study), lesion: several types, types named in the paper, dosed 68 weeks, study length 77 weeks): 206 mg/kg/day
- TD50 (mouse, strain CD-1 HaM/ICR, males, in feed, site: liver, lesion: hepatoma, dosed 68 weeks, study length 77 weeks): 560 mg/kg/day
- TD50 (mouse, strain CD-1 HaM/ICR, males, in feed, site: liver, lesion: several types, types named in the paper, dosed 68 weeks, study length 77 weeks): 452 mg/kg/day
- TD50 (mouse, strain CD-1 HaM/ICR, males, in feed, site: lung, lesion: several types, types named in the paper, dosed 68 weeks, study length 77 weeks): 385 mg/kg/day (inactive)
- TD50 (rat, strain Charles River CD (Sprague-Dawley), males, in feed, site: any site (literature study), lesion: several types, types named in the paper, dosed 77 weeks, study length 116 weeks): 45.9 mg/kg/day (inactive)
- carcinogen call (rat, strain Charles River CD (Sprague-Dawley), males, in feed, site: liver, lesion: several types, types named in the paper, dosed 77 weeks, study length 116 weeks): negative (inactive)
